What was measured:
Settings in all cases: 72 h
HepG2 [1] = assay: cell viability relative to DMSO; higher = less toxic
U2OS [2] = assay: as above
Vero E6 [3] = assay: as above
Caco-2 [4] = assay: as above
Calu-3 [5] = assay: as above
HepG2 [6] = assay: drug sensitivity score (DSS) for viability; higher = more toxic; extreme values may be limits of the assay
U2OS [7] = assay: as above
Vero E6 [8] = assay: as above
Caco-2 [9] = assay: as above
Calu-3 [10] = assay: as above
HepG2 [11] = assay: relative viability EC50 (midpoint between 100% and the lowest measured viability); higher = less toxic
U2OS [12] = assay: as above
Vero E6 [13] = assay: as above
Caco-2 [14] = assay: as above
Calu-3 [15] = assay: as above

| SMILES | cell viability (HepG2 [1]; 1 nM) | cell viability (HepG2 [1]; 10 nM) | cell viability (HepG2 [1]; 100 nM) | cell viability (HepG2 [1]; 1000 nM) | cell viability (HepG2 [1]; 10000 nM) | cell viability (U2OS [2]; 1 nM) | cell viability (U2OS [2]; 10 nM) | cell viability (U2OS [2]; 100 nM) | cell viability (U2OS [2]; 1000 nM) | cell viability (U2OS [2]; 10000 nM) | cell viability (Vero E6 [3]; 1 nM) | cell viability (Vero E6 [3]; 10 nM) | cell viability (Vero E6 [3]; 100 nM) | cell viability (Vero E6 [3]; 1000 nM) | cell viability (Vero E6 [3]; 10000 nM) | cell viability (Caco-2 [4]; 1 nM) | cell viability (Caco-2 [4]; 10 nM) | cell viability (Caco-2 [4]; 100 nM) | cell viability (Caco-2 [4]; 1000 nM) | cell viability (Caco-2 [4]; 10000 nM) | cell viability (Calu-3 [5]; 1 nM) | cell viability (Calu-3 [5]; 10 nM) | cell viability (Calu-3 [5]; 100 nM) | cell viability (Calu-3 [5]; 1000 nM) | cell viability (Calu-3 [5]; 10000 nM) | drug sensitivity score (HepG2 [6]) | drug sensitivity score (U2OS [7]) | drug sensitivity score (Vero E6 [8]) | drug sensitivity score (Caco-2 [9]) | drug sensitivity score (Calu-3 [10]) | relative viability EC50 (HepG2 [11]) | relative viability EC50 (U2OS [12]) | relative viability EC50 (Vero E6 [13]) | relative viability EC50 (Caco-2 [14]) | relative viability EC50 (Calu-3 [15]) |
| --- | --- | --- | --- | --- | --- | --- | --- | --- | --- | --- | --- | --- | --- | --- | --- | --- | --- | --- | --- | --- | --- | --- | --- | --- | --- | --- | --- | --- | --- | --- | --- | --- | --- | --- | --- |
| OB1OCc2cc(Cl)ccc21 [AN2718] | 120% | 107% | 107% | 94% | 108% | 101% | 98% | 96.1% | 98.2% | 98.7% | 101% | 99.8% | 94.7% | 96.9% | 103% | 93.8% | 102% | 82.2% | 98.8% | 82.7% | 100% | 89% | 90.6% | 102% | 92.8% | 0 | 0 | 0 | 0.4 | 0 | > 10 µM | > 10 µM | > 10 µM | > 10 µM | > 10 µM |
| NC(=O)c1cn([C@@H]2O[C@H](CO)[C@@H](O)[C@H]2O)c2ncnc(N)c2c1=O [API-1] | 106% | 97.9% | 84.9% | 39% | 4.5% | 95.7% | 98.8% | 91.1% | 97.5% | 0.9% | 97% | 89.7% | 94.8% | 93% | 47.3% | 92.3% | 92.9% | 85% | 80.1% | 36.4% | 97% | 107% | 87.5% | 52.7% | 20.7% | 13.6 | 5.9 | 4 | 5.6 | 10.6 | 0.544 µM | 2.98 µM | 2.1 µM | 1.53 µM | 0.639 µM |
| N[C@@H]1CCCN(c2c(/C=C3\SC(=O)NC3=O)cccc2-c2ccccc2)C1 [AZD1208] | 92.6% | 104% | 93.5% | 89.8% | 80% | 97.1% | 88.9% | 93.3% | 95.6% | 96.7% | 98.3% | 99.9% | 87.9% | 91.8% | 96.2% | 103% | 97.5% | 109% | 95.3% | 98.6% | 105% | 94.4% | 92.4% | 86.6% | 99.8% | 1.2 | 0 | 0 | 0 | 0 | > 10 µM | > 10 µM | > 10 µM | > 10 µM | > 10 µM |
| NCC(=O)O [AZD4282] | 95.3% | 96% | 96.6% | 102% | 101% | 93.7% | 96.7% | 100% | 98.9% | 102% | 102% | 103% | 99.3% | 104% | 100% | 99% | 104% | 86.4% | 99.7% | 103% | 86.3% | 101% | 96.3% | 102% | 97.3% | 0 | 0 | 0 | 0 | 0 | > 10 µM | > 10 µM | > 10 µM | > 10 µM | > 10 µM |
| Cc1ncc(-c2ccnc(Nc3ccc(S(C)(=O)=O)cc3)n2)n1C(C)C [AZD5438] | 100% | 95% | 106% | 77.3% | 6.7% | 104% | 105% | 108% | 102% | 10.1% | 97.6% | 102% | 96.4% | 91.6% | 12.6% | 97.1% | 97.8% | 104% | 96.8% | 27.7% | 98.9% | 97.1% | 104% | 106% | 38.1% | 8.7 | 4.8 | 6.2 | 4.4 | 2.9 | 1.58 µM | 3.29 µM | 2.36 µM | 2.84 µM | 3.65 µM |
| COc1cc(C)[nH]c(=O)c1CNC(=O)c1c(C)n([C@H](C)C2CCOCC2)c2ccccc12 [CPI-360] | 107% | 97.6% | 96.7% | 90.7% | 92.2% | 99.7% | 101% | 100% | 102% | 101% | 108% | 102% | 108% | 96.3% | 104% | 107% | 106% | 99.2% | 107% | 95.7% | 101% | 113% | 101% | 105% | 95.7% | 0 | 0 | 0 | 0 | 0 | > 10 µM | > 10 µM | > 10 µM | > 10 µM | > 10 µM |
| C#Cc1cccc(Nc2ncnc3cc(OC)c(OCCCCCCC(=O)NO)cc23)c1 [CUDC-101] | 96.3% | 110% | 94.9% | 25.7% | 0.1% | 97.7% | 99.6% | 93.4% | 68.5% | 2% | 98.6% | 96% | 94.6% | 80.2% | 8.4% | 97% | 89.7% | 90.6% | 81.8% | 39.6% | 96.7% | 98.8% | 81.5% | 37.2% | 9% | 14.7 | 9.6 | 8.2 | 5.4 | 14.1 | 0.548 µM | 1.41 µM | 1.67 µM | 1.55 µM | 0.419 µM |
| COC(=O)c1sccc1S(=O)(=O)Nc1ccc(Nc2ccccc2)cc1OC [GSK0660] | 91.4% | 109% | 102% | 101% | 92.6% | 101% | 95.4% | 98.8% | 95.5% | 93.5% | 91.9% | 104% | 94.8% | 102% | 104% | 96.8% | 86.2% | 104% | 105% | 98.9% | 106% | 102% | 101% | 93.1% | 102% | 0 | 0 | 0 | 0 | 0 | > 10 µM | > 10 µM | > 10 µM | > 10 µM | > 10 µM |
| CS(=O)(=O)N(Cc1ccco1)C[C@@H](O)Cn1c2ccccc2c2ccccc21 [KL-001] | 98.9% | 104% | 97.2% | 104% | 106% | 98.3% | 98.4% | 99% | 93.7% | 90% | 99% | 101% | 97.6% | 100% | 98% | 95.6% | 98.5% | 102% | 94.1% | 94.6% | 105% | 93.2% | 101% | 115% | 110% | 0 | 0 | 0 | 0 | 0 | > 10 µM | > 10 µM | > 10 µM | > 10 µM | > 10 µM |
| NC(=O)C[C@H](N)C(=O)O [L-asparagine] | 92.7% | 116% | 92.3% | 105% | 93.7% | 96.5% | 95.4% | 98.6% | 98.7% | 102% | 102% | 112% | 99.2% | 101% | 86.8% | 103% | 104% | 92.1% | 106% | 105% | 95.2% | 95.6% | 93.1% | 96.1% | 98% | 0 | 0 | 0.1 | 0 | 0 | > 10 µM | > 10 µM | > 10 µM | > 10 µM | > 10 µM |
| C[N+](C)(C)[C@@H](Cc1c[nH]c(=S)[nH]1)C(=O)O [L-ergothioneine] | 83.4% | 88.9% | 102% | 98.8% | 80.4% | 96% | 94.1% | 98.2% | 92.4% | 95.6% | 94.3% | 94.9% | 96.5% | 109% | 106% | 100% | 101% | 114% | 105% | 97.3% | 97.2% | 97.7% | 95.2% | 108% | 95.4% | 0.7 | 0 | 0 | 0 | 0 | > 10 µM | > 10 µM | > 10 µM | > 10 µM | > 10 µM |

Reference: the supplement of paper PMC13380429
